For 89 compounds, AC50 results are on record in PubChem BioAssay AID463204 (Broad Institute, 2010).

Active and inactive are the calls of the source.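 How the source made its calls: active means AC50 no more than ten times the top concentration tested, that is within one log above it; inconclusive means flat curve fit with activity between 30% and 70%, or invalid poor fit; inactive means AC50 beyond ten times the top tested dose.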

This experiment has as its system S. cerevisiae Mot1-301 ts growth rescue, BacTiter-Glo ATP luminescence. Nature of the experiment: growth rescue of Mot1-301 ts yeast, confirmation, SUMOylation pathway inhibitor project, whole organism, S. cerevisiae, Mot1-301 ts mutant, luminescence, dose retest (AID 463204).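 Further: growth at restrictive 38.5 degrees C of Mot1-301 OY566 strain; actives raise luminescence by restoring growth of the ts mutant at high temperature.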
Consider `CCN(CC)c1ccc(Nc2cc3n(c(=O)n2)CCc2cc(OC)c(OC)cc2-3)cc1`, for which the AC50 was > 42 µM (inactive).
Next, `COc1cc(C(=O)NCCOc2cc(C)cc(C)c2)cc(OC)c1OC`: > 42 µM (inactive); `CCOC(=O)C1(CCOc2ccccc2)CCN(Cc2cccc(OC)c2O)CC1`: > 42 µM (inactive); `Cc1cc(S(=O)(=O)N2CCCC(N3CCOCC3)C2)c(C)cc1Cl` (centres undefined): > 42 µM (inactive).
The figure for `CC(=O)c1ccc(Nc2cc(C)nc3ccccc23)cc1` is > 42 µM (inactive); for `Cc1nnc(SCC(=O)NC(C)(C)C)n1NCc1ccc(Cl)cc1` it is > 42 µM (inactive).
Turning to `Cc1nn(C(C)(C)C)c(OC(=O)c2ccc3c(c2)OCO3)c1S(=O)(=O)c1ccccc1`, the AC50 was > 42 µM (inactive).
On to `CC(C)(C)C1c2[nH]c3ccccc3c2CCN1Cc1cccc(OCCO)c1` (centres undefined), for which the AC50 was > 42 µM (inactive).
The figure for `O=C(O)C1CCCN1C(=O)c1cncc(Br)c1` (centres undefined) is > 42 µM (inactive).
The figure for `CC1(C)Cc2nc3sc4c(OCc5ccccc5)ncnc4c3cc2CO1` is > 42 µM (inactive).
Next, `Cc1cc(C)c2cc(C)c3nnc(SCC(=O)NCc4ccc5c(c4)OCO5)n3c2c1`: > 42 µM (inactive); `CCOc1ccccc1N(CC(=O)Nc1ccccc1C(=O)N1CCCC1)S(C)(=O)=O`: > 42 µM (inactive); `Cc1ccccc1P(=O)(CO)c1ccccc1C`: > 42 µM (inactive).
Turning to `Cc1c(=O)n(OCc2ccccn2)c2ccccc2[n+]1[O-]`, the AC50 is > 42 µM (inactive).
Next, `CCc1nnc(NC(=O)CSc2nc3c(cc2C#N)CCCC3)s1`: > 42 µM (inactive).
The figure for `O=C(COc1cnc2ccccc2n1)NCCC1=CCCCC1` is > 42 µM (inactive).
The figure for `CCOc1ccc(Cl)cc1CNc1nnnn1CC` is > 42 µM (inactive).
Turning to `O=C(OCC#CCSc1nnc(-c2ccccc2)o1)c1cc2ccccc2o1`, the AC50 is > 42 µM (inactive).
The figure for `O=S(=O)(O)c1ccc(N=NNc2ccc(Br)cc2)cc1` is > 42 µM (inactive).
The figure for `Cc1ccc(S(=O)(=O)NN2C(=O)c3ccccc3NC2c2ccccc2F)cc1` (centres undefined) is > 42 µM (inactive); for `Cc1cc(NC(=O)CCC(=O)N(c2cccnc2)C(C(=O)NC2CCCC2)c2ccccc2)no1` (centres undefined) it is > 42 µM (inactive).
The figure for `C[C@@]12C(=O)Nc3ccc(F)cc3C(=O)N1[C@H]1c3cc(Cl)ccc3OC[C@@H]1[C@@H]2c1ccccc1` is 1.97 µM; for `CC(=O)N1N=C(N)SC12CCCC2` it is > 42 µM (inactive); for `O=C(OCc1nnc(-c2ccccc2)o1)c1ccc([N+](=O)[O-])o1` it is 4.12 µM.
As to `Cc1ccc(NC2CC(=O)N(c3ccc(N4CCCCC4)cc3)C2=O)cc1` (centres undefined), the AC50 is > 21 µM (inactive).
Next, `On1c(-c2ccccc2Cl)nc2ncccc21`: > 42 µM (inactive); `O=S(=O)(NCc1ccc(Cl)cc1)c1cnc[nH]1`: > 42 µM (inactive).
The figure for `Cc1ccc(F)cc1NS(=O)(=O)c1ccc(Cl)s1` is 22.2 µM; for `Cc1ccc(N(CC(=O)NCCc2ccc(Cl)cc2)S(=O)(=O)c2c(C)noc2C)cc1` it is > 42 µM (inactive).
The figure for `CCC(C)[C@H]1COCCS(=O)(=O)N1Cc1ccc(C)cc1` (some centres undefined) is > 42 µM (inactive).
Turning to `COc1cccc(S(=O)(=O)Nc2cccc(C(=O)N3CCOCC3)c2)c1`, the AC50 is > 42 µM (inactive).
As for `Cc1[nH]n(-c2ccccc2)c(=O)c1C(C[N+](=O)[O-])c1ccc(Br)cc1` (centres undefined), the AC50 was > 42 µM (inactive).
Next, `COc1ccccc1NS(=O)(=O)c1cc(Cl)ccc1OC`: > 42 µM (inactive).
As for `CCOC(=O)c1cc(C#N)c(Oc2ccccc2OC)nc1-c1ccccc1`, the AC50 is > 42 µM (inactive).
Next, `O=C(/C=C/NNC(=O)c1ccc(Br)cc1)c1ccccc1`: > 42 µM (inactive); `COc1cc(/C=N/NC(=O)c2ccncc2)ccc1OC(=O)c1ccco1`: > 42 µM (inactive); `CCOC(=O)C1CCCN(C(=O)/C=C/c2ccc(Cl)cc2)C1` (centres undefined): > 42 µM (inactive).
Next, `CNC(=O)COC(=O)c1cc(-c2ccco2)nc2ccccc12`: > 42 µM (inactive).
`O=C(CSc1cccc2cccnc12)Nc1cc(C(=O)O)cc(C(=O)O)c1`: the AC50 is > 42 µM (inactive).
The figure for `O=C(O)c1ccc(/C=N/NC(=O)c2cc(-c3ccc4c5c(cccc35)CC4)n[nH]2)cc1` is > 42 µM (inactive).
Next, `COc1ccc(NC(=O)C(c2ccccc2)N2CCN(c3ccccn3)CC2)cc1Cl` (centres undefined): > 42 µM (inactive).
For `O=C(CSc1nc2ncccc2[nH]1)NC1CCCCC1`, the AC50 is > 42 µM (inactive).
The figure for `CC12CCC(=O)N1C(C(=O)Nc1ccccc1F)CS2` (centres undefined) is > 42 µM (inactive); for `Cc1cccc(N2CCN(C(=O)CN3C(=O)NC(C)(C)C3=O)CC2)c1C` it is > 42 µM (inactive).
Next, `O=C(O)c1ccc(S(=O)(=O)N2CCN(c3ccccn3)CC2)cc1`: > 42 µM (inactive); `COC(=O)C1C2C=CC3(CN(CCc4ccccc4)C(=O)C13)O2` (centres undefined): > 21 µM (inactive); `COc1cc(/C=C2\NC(=S)N(C)C2=O)ccc1OCc1cccc(F)c1`: > 42 µM (inactive).
The figure for `CCCCOc1ccc(CSC(=N)N)cc1Cl` is > 42 µM (inactive); for `Cc1cccc(N=C2C(=O)Nc3c(Cl)cccc32)c1` it is > 42 µM (inactive); for `C/C(=N\N=C(c1ccccc1)c1ccccc1)c1ccco1` it is > 42 µM (inactive).
On to `O=C(Nc1ccc([N+](=O)[O-])cn1)c1ccc2c(c1)OCO2`, for which the AC50 is > 42 µM (inactive).
Next, `COc1ccc(C)cc1NC(=S)N1CCN(c2ccccn2)CC1`: > 42 µM (inactive); `CC(C)C(=O)Nc1ccc(NC(=S)NC(=O)c2ccccc2F)cc1`: > 42 µM (inactive).
The figure for `O=C(c1cc(-c2ccc(Cl)cc2)n(-c2ccc(Cl)cc2)n1)N1CCOCC1` is > 42 µM (inactive); for `CN(C)CC/C=C1\c2ccccc2Sc2ccc(Cl)cc21` it is > 42 µM (inactive).
For the compound `CC1(C)c2[nH]c3ccccc3c2C[C@H]2C(=O)N(Cc3cccc(F)c3)C(=O)N21`, the AC50 was > 42 µM (inactive).
For `CCn1nccc1C(=O)Nc1ccccc1OC`, the AC50 is > 42 µM (inactive).
In the case of `CCCCCC(=O)Nc1nnn(CCC)n1`, the AC50 is > 42 µM (inactive).
Next, `CC(C)COc1ccc(C(=O)Nc2ccc([N+](=O)[O-])cc2)cc1`: > 42 µM (inactive); `COc1ccc(-n2nc(C(=O)NCC(=O)N3CCCC3)c3ccccc3c2=O)c(OC)c1`: > 42 µM (inactive).
The figure for `Cc1cc(Oc2cc(NN3CCCCC3)c([N+](=O)[O-])cc2[N+](=O)[O-])ccc1[N+](=O)[O-]` is > 42 µM (inactive).
The figure for `CCCCC1=CC2=CC(=O)C(C)(OC(=O)CC)C(=O)C2=CN1CCc1ccc(Br)cc1` (centres undefined) is > 42 µM (inactive); for `Cc1cc(C)cc(OCC(=O)Nc2ccc(N3CCN(C(=O)c4ccco4)CC3)cc2)c1` it is > 42 µM (inactive); for `CCOP(=O)(Cc1cc(C(=O)CC)c(C)o1)OCC` it is > 42 µM (inactive).
Consider `Cc1cc(C(=O)COc2cccc3cccnc23)c(C)n1C`, for which the AC50 is > 42 µM (inactive).
`Cc1ccccc1Nc1cc(=O)oc2ccccc12`: the AC50 was > 42 µM (inactive).
The figure for `Cn1c(=O)[nH]c(=O)c2c1nc(NCCN)n2CCOc1ccccc1` is > 42 µM (inactive).
For `COc1cc2c(cc1OC)C(c1ccccc1C)CC(=O)N2` (centres undefined), the AC50 is > 42 µM (inactive).
The figure for `O=C(NCCNc1ccc(Cl)cc1[N+](=O)[O-])c1ccccc1F` is > 42 µM (inactive).
Take `Oc1ccc(Br)cc1/C=N/n1c(COc2ccccc2)n[nH]c1=S`: the AC50 is 14.2 µM.
Next, `CCN(CC)CCCNC(=O)C1c2ccccc2C(=O)N(CCOC)C1c1ccc(F)cc1` (centres undefined): > 21 µM (inactive); `Cc1nc(CC(=O)N/N=C/c2ccc(OCC(=O)O)cc2)cs1`: > 42 µM (inactive); `CC(=O)N1CCc2cc(S(=O)(=O)CCC(=O)N3CCN(C(=O)c4ccco4)CC3)ccc21`: > 42 µM (inactive).
The figure for `CCCCCCNc1c(C(=O)OCC)c(=O)[nH]c2ccccc12` is > 42 µM (inactive); for `CCOC(=O)N1CCC(Nc2nc3ccccc3n3nnnc23)CC1` it is > 42 µM (inactive).
Consider `COc1ccc2c(C(=O)CN3CC(C)OC(C)C3)c[nH]c2c1` (centres undefined), for which the AC50 was > 42 µM (inactive).
Take `COc1ccc2c(c1)OC[C@H]1[C@H]2N2C(=O)c3cc(F)ccc3NC(=O)[C@@]2(C)[C@H]1c1ccccc1`: the AC50 is 3.15 µM.
Next, `CCOc1ccc(N(C(C)C(=O)NC(C)CC)S(C)(=O)=O)cc1` (centres undefined): > 42 µM (inactive); `O=C1COc2ccc(C(=O)COC(=O)c3ncc(Cl)c(Cl)c3Cl)cc2N1`: > 42 µM (inactive); `CCc1ccccc1NC(=O)N[C@@H](C)C(=O)OC`: > 42 µM (inactive).
Next, `CCCCn1c2nc3ccccc3nc2c2c(=O)n(CCC)cnc21`: > 42 µM (inactive); `CCN1CCCC(NC(=O)c2scc3c2CCCC3)C1` (centres undefined): > 42 µM (inactive); `COCCCN1C(=O)c2ccc(C(=O)Nc3ccc(OC)cc3OC)cc2C1=O`: > 42 µM (inactive).
For `COc1ccc(N(CC(=O)NCc2ccc(C)cc2)S(=O)(=O)c2c(C)nn(C)c2C)cc1`, the AC50 was > 42 µM (inactive).
Next, `COC(=O)c1ccc(CSc2nnnn2-c2ccccc2)o1`: > 42 µM (inactive); `Cc1ccc(C)c(N2CCN(C(c3ccncc3)c3nnnn3Cc3ccccc3)CC2)c1` (centres undefined): > 21 µM (inactive); `COc1cc2c(cc1OC)C(c1ccccc1[N+](=O)[O-])N(C(C)=O)CC2` (centres undefined): > 42 µM (inactive).
Consider `CC1CCCCC1N=CC1=C(O)CC(C)(C)CC1=O` (centres undefined), for which the AC50 is > 42 µM (inactive).
The figure for `CN(C)c1ccc(/C=N\Nc2ccccn2)cc1` is > 42 µM (inactive).

For orientation: AC50 means the midpoint of the concentration-response curve, whichever way the signal moves.
